Test results published in patent publication US12441736B2, “KIF18A inhibitors” (AMGEN INC., priority 2018, dated 2025).

Biological target: T1, Recombinant human KIF18A (1-467 His-tagged) protein (Homo sapiens, UniProt Q8NI77)
T1 construct: Recombinant human KIF18A (1-467 His-tagged) protein; His; made in house
Experiment: KIF18A Enzyme Assay: microtubule-stimulated ATPase activity (ADP-Glo)
Format: biochemical
Conditions: 30 nM KIF18A, 30 μg/mL pig microtubules, 75 μM ATP, ADP-Glo luminescence
Text: KIF18A Enzyme Assay: Microtubule-stimulated ATPase activity assay is used to measure KIF18A enzyme activity after treatment with compound. Compounds were 2-fold serially diluted in DMSO (Sigma Inc) over 22-point concentration range. Recombinant human KIF18A (1-467 His-tagged) protein was expressed using a baculovirus system and purified by affinity chromatography by Amgen Inc. Concentrations of KIF18A protein, microtubules (MT), and ATP in the reaction were optimized for standardized homogenous enzyme assay using ADP-Glo™ Kinase/ATPase Assay Kit (Promega Inc). The assay measures ADP formed from the ATPase reaction. Prepare reaction buffer [(15 mM Tris, pH 7.5 (Teknova Inc), 10 mM MgCl2 (IT Baker Inc), 0.01% Pluronic F-68 (Life Technologies Inc), 1 μM Taxol (Cytoskeleton Inc), and 30 μg/mL pig microtubules (Cytoskeleton Inc)]. Add compound and KIF18A protein (30 nM) to prepared reaction buffer and incubated for 15 minutes at room temperature, next add ATP (at Kin, 75 μM) to the reaction mixture and incubated for an additional 15 minutes at room temperature. Mix 5 μl of ADP-Glo™ Reagent and 2.5 μl of the reaction mixture and incubate for 40 minutes at room temperature. Add 10 μl ADP-Glo™ Detection Reagent and incubate for 40 minutes at room temperature. Read luminescence using EnVision microplate reader with ultra-luminescence module (Perkin Elmer Inc). Concentration-response curve-fitting and IC50 determination was performed using Genedata Screener Software (Standard 15.0.1, Genedata Inc) with a four-parameter logistic regression fit model.
Table A provides data for compounds exemplified in the present application and priority document thereof, as representative compounds of the present invention, as follows: chemical name (as named by either ACD software or ChemDraw (Professional 15.0)) and biological data (IC50 in μM). Ex. # refers to Example No.

T1 sequence (Q8NI77 1-467): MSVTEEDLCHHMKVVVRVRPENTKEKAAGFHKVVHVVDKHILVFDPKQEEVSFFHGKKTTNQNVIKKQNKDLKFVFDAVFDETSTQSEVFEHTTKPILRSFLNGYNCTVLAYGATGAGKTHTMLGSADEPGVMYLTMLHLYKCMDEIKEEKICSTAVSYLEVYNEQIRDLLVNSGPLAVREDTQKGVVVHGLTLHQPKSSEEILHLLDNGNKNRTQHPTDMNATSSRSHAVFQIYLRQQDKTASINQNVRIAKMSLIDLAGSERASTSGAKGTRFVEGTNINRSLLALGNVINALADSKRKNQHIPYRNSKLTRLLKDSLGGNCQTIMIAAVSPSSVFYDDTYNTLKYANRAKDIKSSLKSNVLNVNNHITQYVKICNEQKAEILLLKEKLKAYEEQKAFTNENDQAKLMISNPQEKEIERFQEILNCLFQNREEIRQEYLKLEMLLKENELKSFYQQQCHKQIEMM
T1 sequence (P02550 whole entry partner): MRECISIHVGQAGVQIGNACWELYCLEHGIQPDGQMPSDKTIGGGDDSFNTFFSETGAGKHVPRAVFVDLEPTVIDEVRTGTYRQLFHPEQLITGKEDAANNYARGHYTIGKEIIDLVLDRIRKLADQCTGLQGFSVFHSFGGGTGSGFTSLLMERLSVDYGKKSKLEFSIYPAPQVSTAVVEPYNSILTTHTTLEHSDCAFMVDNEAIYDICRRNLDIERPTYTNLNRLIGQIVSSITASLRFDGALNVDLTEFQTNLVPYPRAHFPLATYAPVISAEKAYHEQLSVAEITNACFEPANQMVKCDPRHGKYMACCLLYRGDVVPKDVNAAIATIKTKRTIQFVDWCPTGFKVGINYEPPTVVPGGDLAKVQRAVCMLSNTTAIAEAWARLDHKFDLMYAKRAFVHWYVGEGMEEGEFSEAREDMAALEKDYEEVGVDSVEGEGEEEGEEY
T1 sequence (P02554 whole entry partner): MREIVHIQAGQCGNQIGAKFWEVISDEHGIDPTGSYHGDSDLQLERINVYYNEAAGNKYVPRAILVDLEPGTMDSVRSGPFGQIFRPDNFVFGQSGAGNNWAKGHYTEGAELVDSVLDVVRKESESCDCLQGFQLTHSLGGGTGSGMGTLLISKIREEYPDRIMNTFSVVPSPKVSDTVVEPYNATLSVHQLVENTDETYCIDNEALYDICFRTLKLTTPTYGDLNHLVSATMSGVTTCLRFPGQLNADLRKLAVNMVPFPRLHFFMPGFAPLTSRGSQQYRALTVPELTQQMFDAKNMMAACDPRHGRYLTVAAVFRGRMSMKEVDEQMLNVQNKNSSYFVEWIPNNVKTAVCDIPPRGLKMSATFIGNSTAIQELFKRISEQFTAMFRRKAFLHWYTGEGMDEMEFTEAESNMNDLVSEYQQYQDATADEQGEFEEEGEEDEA

| Compound | IC50 |
| --- | --- |
| CC(C)(CO)Nc1ccc(C(=O)Nc2cccc(N3CC(O)CC3(C)C)n2)c(N2CCC3(CC2)CC3)n1 (stereo not shown) [Example 219, N-(6-(4-hydroxy-2,2-dimethylpyrrolidin-1-yl)pyridin-2-yl)-6-((1-hydroxy-2-methylpropan-2-yl)amino)-2-(6-azaspiro[2.5]octan-6-yl)nicotinamide] | 217 nM |
| CC(C)(CO)Nc1ccc(C(=O)Nc2cccc(NCCO)n2)c(N2CCC3(CC2)CC3)n1 [Example 226, 2-(6-azaspiro[2.5]octan-6-yl)-N-(6-((2-hydroxyethyl)amino)-2-pyridinyl)-6-((1-hydroxy-2-methyl-2-propanyl)amino)-3-pyridinecarboxamide] | 392 nM |
| CN1CCN(c2cccc(NC(=O)c3ccc(NC(C)(C)CO)nc3N3CCC4(CC3)CC4)n2)CC1 [Example 133, 2-(6-azaspiro[2.5]oct-6-yl)-6-((2-hydroxy-1,1-dimethylethyl)amino)-N-(6-(4-methyl-1-piperazinyl)-2-pyridinyl)-3-pyridinecarboxamide] | 604 nM |
| C[C@@H]1CN(c2cccc(NC(=O)c3ncc(NS(C)(=O)=O)nc3N3CCC4(CC3)CC4)n2)CCO1 [Example 121, 3-(6-azaspiro[2.5]octan-6-yl)-N-(6-((2R)-2-methyl-4-morpholinyl)-2-pyridinyl)-5-((methylsulfonyl)amino)-2-pyrazinecarboxamide] | 642 nM |
| CCN1CCN(c2cccc(NC(=O)c3ccc(NC(C)(C)CO)nc3N3CCC4(CC3)CC4)n2)CC1 [Example 192, 2-(6-azaspiro[2.5]octan-6-yl)-N-(6-(4-ethyl-1-piperazinyl)-2-pyridinyl)-6-((1-hydroxy-2-methyl-2-propanyl)amino)-3-pyridinecarboxamide] | 1090 nM |
| COC1CCN(c2cccc(NC(=O)c3ccc(NC(C)(C)CO)nc3N3CCC4(CC3)CC4)n2)C1 (stereo not drawn) [Example 124, 6-((1-hydroxy-2-methylpropan-2-yl)amino)-N-(6-(3-methoxypyrrolidin-l-yl)pyridin-2-yl)-2-(6-azaspiro[2.5]octan-6-yl)nicotinamide] | 407 nM |
| C[C@H]1CN(c2cccc(NC(=O)c3ccc(NC(C)(C)CO)nc3N3CCC4(CC3)CC4)n2)[C@@H](C)CO1 (racemic) [Example 199, N-(6-((2S,5S)-2,5-dimethylmorpholino)pyridin-2-yl)-6-((1-hydroxy-2-methylpropan-2-yl)amino)-2-(6-azaspiro[2.5]octan-6-yl)nicotinamide] | 243 nM |
| C[C@@H]1CN(c2cccc(NC(=O)c3ccc(OCCC(C)(C)N)nc3N3CCC4(CC3)CC4)n2)CCO1 [Example 209, 6-(3-amino-3-methylbutoxy)-2-(6-azaspiro[2.5]octan-6-yl)-N-(6-((2R)-2-methyl-4-morpholinyl)-2-pyridinyl)-3-pyridinecarboxamide] | 411 nM |
| CC(C)(CO)Nc1ccc(C(=O)Nc2cccc(N3CCN(C(=O)OC(C)(C)C)CC3)n2)c(N2CCC3(CC2)CC3)n1 [Example 185, 2-methyl-2-propanyl 4-(6-(((2-(6-azaspiro[2.5]octan-6-yl)-6-((1-hydroxy-2-methyl-2-propanyl)amino)-3-pyridinyl)carbonyl)amino)-2-pyridinyl)-1-piperazinecarboxylate] | 592 nM |
| COc1cc(NC(=O)c2ncc(NC(C)(C)CO)nc2N2CCC3(CC2)CC3)nc(N2CCOCC2)c1 [Example 116, 3-(6-azaspiro[2.5]octan-6-yl)-5-((1-hydroxy-2-methyl-2-propanyl)amino)-N-(4-methoxy-6-(4-morpholinyl)-2-pyridinyl)-2-pyrazinecarboxamide] | 1160 nM |
| CN(C(=O)OC(C)(C)C)C1CCCN(c2cccc(NC(=O)c3ccc(NC(C)(C)CO)nc3N3CCC4(CC3)CC4)n2)C1 (stereo not shown) [Example 232, tert-butyl (1-(6-(6-((1-hydroxy-2-methylpropan-2-yl)amino)-2-(6-azaspiro[2.5]octan-6-yl)nicotinamido)pyridin-2-yl)piperidin-3-yl)(methyl)carbamate] | 948 nM |
| COC(=O)C(F)(C(=O)OC)c1ccc(C(=O)Nc2cccc(S(=O)(=O)NC(C)(C)C)n2)c(N2CCC3(CC2)CC3)n1 [Example 193, dimethyl (6-(6-azaspiro[2.5]octan-6-yl)-5-((6-((2-methyl-2-propanyl)sulfamoyl)-2-pyridinyl)carbamoyl)-2-pyridinyl)(fluoro)propanedioate] | 239 nM |

Molecules with a lower IC50, results first:

| IC50 | Compound |
| --- | --- |
| 206 nM | Cc1cc(NC(=O)c2ccc(NC(C)(C)CO)nc2N2CCC3(CC2)CC3)nc(S(=O)(=O)NC(C)(C)C)c1 [Example 157, 2-(6-azaspiro[2.5]octan-6-yl)-6-((1-hydroxy-2-methyl-2-propanyl)amino)-N-(4-methyl-6-((2-methyl-2-propanyl)sulfamoyl)-2-pyridinyl)-3-pyridinecarboxamide] |
| 196 nM | CC(C)(C)NS(=O)(=O)c1cccc(NC(=O)c2ccc(C(F)CO)nc2N2CCC3(CC2)CC3)n1 (stereo not shown) [Example 195, N-(6-(N-(tert-butyl)sulfamoyl)pyridin-2-yl)-6-(1-fluoro-2-hydroxyethyl)-2-(6-azaspiro[2.5]octan-6-yl)nicotinamide] |
| 180 nM | C[C@@H]1CN(c2cccc(NC(=O)c3ccc(C(F)CO)nc3N3CCC4(CC3)CC4)n2)CCO1 (stereo partly drawn) [Example 197, 6-(1-Fluoro-2-hydroxyethyl)-N-(6-((R)-2-methylmorpholino)pyridin-2-yl)-2-(6-azaspiro[2.5]octan-6-yl)nicotinamide] |
| 136 nM | CC1(O)CCCN(c2cccc(NC(=O)c3ccc(NC(C)(C)CO)nc3N3CCC4(CC3)CC4)n2)C1 (stereo not drawn) [Example 229, 6-((1-hydroxy-2-methylpropan-2-yl)amino)-N-(6-(3-hydroxy-3-methylpiperidin-l-yl)pyridin-2-yl)-2-(6-azaspiro[2.5]octan-6-yl)nicotinamide] |
| 136 nM | CC(C)(CO)Nc1ccc(C(=O)Nc2cccc(N3CCCC3)n2)c(N2CCC3(CC2)CC3)n1 [Example 125, 2-(6-azaspiro[2.5]oct-6-yl)-6-((2-hydroxy-1,1-dimethylethyl)amino)-N-(6-(1-pyrrolidinyl)-2-pyridinyl)-3-pyridinecarboxamide] |
| 123 nM | CC(C)(CO)Nc1ccc(C(=O)Nc2cccc(N3CCOC(C(F)(F)F)C3)n2)c(N2CCC3(CC2)CC3)n1 (stereo not shown) [Example 205, 6-((1-hydroxy-2-methylpropan-2-yl)amino)-2-(6-azaspiro[2.5]octan-6-yl)-N-(6-(2-(trifluoromethyl)morpholino)pyridin-2-yl)nicotinamide] |
| 112 nM | CC(C)(CO)Nc1cnc(C(=O)Nc2cc(Cl)cc(N3CCOCC3)n2)c(N2CCC3(CC2)CC3)n1 [Example 113, 3-(6-azaspiro[2.5]oct-6-yl)-N-(4-chloro-6-(4-morpholinyl)-2-pyridinyl)-5-((1-hydroxy-2-methyl-2-propanyl)amino)-2-pyrazinecarboxamide] |
| 110 nM | CC1(C)CC(=O)N(c2cccc(NC(=O)c3ccc(NC(C)(C)CO)nc3N3CCC4(CC3)CC4)n2)C1 [Example 135, 2-(6-azaspiro[2.5]oct-6-yl)-N-(6-(4,4-dimethyl-2-oxo-1-pyrrolidinyl)-2-pyridinyl)-6-((2-hydroxy-1,1-dimethylethyl)amino)-3-pyridinecarboxamide] |
| 98 nM | C[C@@H]1COCCN1c1cccc(NC(=O)c2ccc(NC(C)(C)CO)nc2N2CCC3(CC2)CC3)n1 [Example 179, 2-(6-azaspiro[2.5]octan-6-yl)-6-((1-hydroxy-2-methyl-2-propanyl)amino)-N-(6-((3R)-3-methyl-4-morpholinyl)-2-pyridinyl)-3-pyridinecarboxamide] |
| 90.4 nM | CC(C)(C)NS(=O)(=O)c1cccc(NC(=O)c2ccc(C(C)(O)C(F)(F)F)nc2N2CCC3(CC2)CC3)n1 (racemic) [Example 143, N-(6-(N-(tert-butyl)sulfamoyl)pyridin-2-yl)-2-(6-azaspiro[2.5]octan-6-yl)-6-(1,1,1-trifluoro-2-hydroxypropan-2-yl)nicotinamide] |
| 89.3 nM | CC(C)(C)NS(=O)(=O)c1cccc(NC(=O)c2ccc(C(C)(O)CO)nc2N2CCC3(CC2)CC3)n1 (stereo not shown) [Example 169, N-(6-(N-(tert-butyl)sulfamoyl)pyridin-2-yl)-6-(1,2-dihydroxypropan-2-yl)-2-(6-azaspiro[2.5]octan-6-yl)nicotinamide] |
| 70.7 nM | CC(C)(CO)Nc1cccc(NC(=O)c2ccc(NC(C)(C)CO)nc2N2CCC3(CC2)CC3)n1 [Example 162, 2-(6-azaspiro[2.5]octan-6-yl)-6-((1-hydroxy-2-methyl-2-propanyl)amino)-N-(6-((1-hydroxy-2-methyl-2-propanyl)amino)-2-pyridinyl)-3-pyridinecarboxamide] |
| 16 nM | O=C(Nc1ccc(NS(=O)(=O)CCO)cc1N1CCC2(CC1)CC2)c1cccc(N2CCC(F)(F)CC2)n1 [Example 248, 6-(4,4-difluoropiperidin-1-yl)-N-(4-((2-hydroxyethyl)sulfonamido)-2-(6-azaspiro[2.5]octan-6-yl)phenyl)picolinamide] |
